Where two headings read alike, the source gives them in different places.
What was measured:
[1] = tested on: root growth of Arabidopsis Col-0 and dhs mutants; test: Chemical feeding experiment, root length of 10-day-old seedlings; type: in vivo, Arabidopsis thaliana; conditions: for IC50: Arabidopsis thaliana
Protocol: (§1) Chemical feeding experiments were carried out as described previously ([de Oliveira et al., 2019]) with some modifications. Seedlings were grown on agar plates containing 0.5 MS with 1% sucrose, 0.8% agar, and 2.5 mM MES at pH 5.7 in the growth chamber where we grew other plants in soil. AAAs and/or shikimate were added to autoclaved media after cooling down to temperatures below 55°C. Plants were grown on the same plate side by side to minimize environmental effects, and multiple plates were prepared to obtain replications. Root lengths of 10-day-old seedlings were quantified by ImageJ.

[2] = tested on: DHS activities from maize (Zea mays) shoots; design: method as in Graziana and Boudet, 1980; conditions: 1 mM; ref Graziana and Boudet, 1980; cited from earlier work
[3] = target: T1, AthDHS1 (Arabidopsis thaliana, UniProt P29976); test: DHS enzymatic activity assay with recombinant AthDHS1; type: biochemical; conditions: for effect on AthDHS1 activity (in words): 1 mM effector; for IC50: varied effector concentrations, read-out: IC50 of AthDHS1 inhibition
T1 construct: AthDHS1; residues 49–525; hexa-histidine; made in house; host or cells: E. coli Rosetta2 (DE3), pET28a
Protocol: (§2) Unless otherwise noted, DHS enzymatic activity was monitored as previously described ([Liu et al., 2008]), with several optimizations for high-throughput assays with eight-strip PCR tubes and a thermal cycler. The enzyme solution (7.7 µL) containing 50 mM HEPES (pH 7.4) was preincubated with an effector molecule(s) at room temperature for 10 min. For assays using recombinant protein and enzyme fraction isolated from plant leaves, 0.01–0.05 µg and approximately 50 µg of proteins were used, respectively. After adding 0.5 µL of 0.1 M DTT, the samples were further incubated at room temperature for 15 min. […] The enzyme reaction was started by adding 6.8 µL of the substrate solution, then incubated at 37°C for 20 min, and terminated by adding 30 µL of 0.6 M trichloroacetic acid. After brief centrifugation, 5 µL of 200 mM NaIO4 (sodium meta-periodate) in 9 N H3PO4 was added to oxidize the enzymatic product and incubate at 25°C for 20 min. To stop the oxidation reaction, 20 µL of 0.75 M NaAsO2 (sodium arsenite), which was dissolved in 0.5 M Na2SO4 and 0.05 M H2SO4, was immediately mixed. After 5 min of incubation at room temperature, one-third of the sample solution was transferred to a new tube to be mixed with 50 µL of 40 mM thiobarbituric acid and incubated at 99°C for 15 min in a thermal cycler. Developed pink chromophore was extracted by putting the final solutions with 600 µL of cyclohexanone in eight-strip solvent-resistant plastic tubes, mixing vigorously and centrifuging them at 4,500 × g for 3 min to separate water- and cyclohexanone-based layers. The absorbance of the pink supernatant was read at 549 nm with the microplate reader (Infinite 200 PRO, TECAN, Männedorf, Switzerland) to calculate DAHP production with the molar extinction coefficient at 549 nm (ε = 549 nm) of 4.5 × 10^4/M/cm. Reaction mixtures with boiled enzyme or without any substrates were run in parallel and used as negative controls to estimate the background signal for recombinant enzymes or enzymatic fraction from plant tissues, respectively.
(§3) For determination of kinetic parameters, the data of enzymatic activities measured in the presence of various concentration of substrates were calculated with the Michaelis–Menten equation in Graphpad Prism 6 (GraphPad Software, San Diego, CA, USA).

[4] = tested on: AthDHS1 and AthDHS2 mixtures; test: DHS assay using mixtures of AthDHS1 and AthDHS2 recombinant enzymes; type: biochemical, Arabidopsis thaliana; conditions: 1 mM effector; molar ratios 0, 0.25, 0.5, 0.75, 1
Protocol: Next, we thought that the presence of non-inhibited DHS isoforms (e.g. AthDHS1) may affect the AAA sensitivity of AthDHS2, given that AthDHSs are known to function as tetrameric or dimeric forms ([Suzich et al., 1985]; [Pinto et al., 1986]; [Webby et al., 2005]). To test this, the recombinant enzymes of AAA non-inhibited AthDHS1 and AAA-inhibited AthDHS2 were mixed with different ratios (0, 0.25, 0.5, 0.75, and 1) and DHS activity assays were conducted with different inhibitors. Based on the kinetic parameters and the regulatory behaviors of individual AthDHSs, the expected level of DHS activity was first calculated and plotted (dotted lines in Figure 5, D, see the “Materials and methods” section). […] Similar results were obtained for the AthDHS2 and AthDHS3 mixture (Figure 5, E).
Unless otherwise noted, DHS enzymatic activity was monitored as previously described ([Liu et al., 2008]), with several optimizations for high-throughput assays with eight-strip PCR tubes and a thermal cycler. The enzyme solution (7.7 µL) containing 50 mM HEPES (pH 7.4) was preincubated with an effector molecule(s) at room temperature for 10 min. For assays using recombinant protein and enzyme fraction isolated from plant leaves, 0.01–0.05 µg and approximately 50 µg of proteins were used, respectively. After adding 0.5 µL of 0.1 M DTT, the samples were further incubated at room temperature for 15 min. […] The enzyme reaction was started by adding 6.8 µL of the substrate solution, then incubated at 37°C for 20 min, and terminated by adding 30 µL of 0.6 M trichloroacetic acid. After brief centrifugation, 5 µL of 200 mM NaIO4 (sodium meta-periodate) in 9 N H3PO4 was added to oxidize the enzymatic product and incubate at 25°C for 20 min. […] The absorbance of the pink supernatant was read at 549 nm with the microplate reader (Infinite 200 PRO, TECAN, Männedorf, Switzerland) to calculate DAHP production with the molar extinction coefficient at 549 nm (ε = 549 nm) of 4.5 × 10^4/M/cm. […]

[5] = target: T2, AthDHS2 (Arabidopsis thaliana, UniProt Q00218); test: DHS enzymatic activity assay with recombinant AthDHS2; type: biochemical; conditions: for IC50: varied effector concentrations, read-out: IC50 of AthDHS2 inhibition
T2 construct: AthDHS2; residues 34–507; hexa-histidine; made in house; host or cells: E. coli Rosetta2 (DE3), pET28a

[6] = tested on: carrot (Daucus carota) DHS; design: method as in Suzich et al., 1985; conditions: ref Suzich et al., 1985; cited from earlier work
[7] = target: AthDHS3 (Arabidopsis thaliana, UniProt Q9SK84); test: DHS enzymatic activity assay with recombinant AthDHS3; type: biochemical; conditions: for effect on AthDHS3 activity (in words): 1 mM effector
Protocol: as §2, §3

[8] = tested on: Arabidopsis Col-0 and dhs mutants; type: in vivo, Arabidopsis thaliana; conditions: 300 µM, 14 days after germination
Protocol: as §1

[9] = tested on: shikimate accumulation in Col-0 and dhs mutants; test: Shikimate content with and without Tyr and/or glyphosate treatment; type: in vivo, Arabidopsis thaliana; conditions: 300 µM, without glyphosate; all genotypes except dhs1
Protocol: Approximately 50–80 mg of fully expanded mature leaves were pooled from multiple plants at the same developmental stages and ground in 800 µL of extraction buffer (v/v 2:1 of methanol and chloroform with 2 µg/mL isovitexin [Millipore-Sigma], 100 µM norvaline [Thermo Fisher Scientific], and 1.25 µg/mL Tocol [Matreya LLC, State College, PA, USA] for internal standards for soluble metabolite analysis by LC–MS and GC–MS and tocopherol analysis by GC–MS, respectively), using 1600 MiniG Tissue Homogenizer (SPEX SamplePrep, Metuchen, USA) and 3-mm glass beads. After adding 600 µL of H2O and then 250 µL of chloroform, polar phase containing amino acids, and non‐polar phase containing tocopherols were separated by centrifugation, dried in new tubes. To detect Trp and AAA-derived metabolites, LC–MS analysis was carried out as previous described with some modification ([Alseekh et al., 2015]). The dried metabolites were resuspended in 70 µL of 80% LC–MS-grade methanol. Two microliters of the sample was injected onto a HSS T3 C18 reversed phase column (100 × 2.1 mm i.d., 1.8-μm particle size; Waters, Milford, CT, USA) and eluted using a 20-min gradient comprising 0.1% formic acid in LC–MS-grade water (solvent A) and 0.1% formic acid in LC–MS-grade acetonitrile (solvent B) at a flow rate of 0.4 mL/min and column temperature of 40°C. The binary linear gradient with following ratios of solvent B was used: 0–1 min, 1%; 1–13 min, 1%–35%; 13–14.5 min, 35%–70%; 14.5–15.5 min, 70%–99%, 15.5–17 min, 99%; 17–17.5 min, 99%–[…]; 17.5–20 min, 1%. The spectra were recorded using full scan mode of negative ion detection, covering a mass range from m/z 100 to 1,500. The resolution was set to 25,000 and the maximum scan time was set to 250 ms. The sheath gas was set to a value of 60, while the auxiliary gas was set to 35. The transfer capillary temperature was set to 150°C, while the heater temperature was adjusted to 300°C. The spray voltage was fixed at 3 kV, with a capillary voltage and a skimmer voltage of 25 and 15 V, respectively. Retention times, MS spectra, and associated peak intensities were extracted from the raw files using the Xcalibur software (Thermo Fisher Scientific). […] For anthocyanin quantification, the polar phase isolated for amino acid analysis was diluted 10 times with water in a new tube. […] Shikimate level was spectrometrically determined based on previous literatures ([Shaner et al., 2005]; [Sharkhuu et al., 2014]). […] After stopping the reaction by adding 100 µL of a termination solution containing 0.6 N sodium hydroxide and 0.22 M sodium sulfite, the absorption at 380 nm was immediately measured with the microplate reader. Shikimate concentration was determined by comparing with a dilution series of the shikimate standards.

[10] = tested on: DHS activities from pea (Pisum sativum) leaves; design: method as in Reinink and Borstlap, 1982; conditions: 1 mM; ref Reinink and Borstlap, 1982; cited from earlier work
[11] = tested on: total DHS activity in Arabidopsis leaf extracts; test: DHS activity assay of crude extracts from Arabidopsis mature leaves; type: biochemical, Arabidopsis thaliana; conditions: 1 mM; Col-0
[12] = tested on: total DHS activity in spinach leaf extracts; test: DHS activity assay of crude extracts from spinach mature leaves; type: biochemical, Spinacia oleracea; conditions: 1 mM
Protocol: (§4) Spinach (S. oleracea) leaves were purchased at a local grocery store. For de-etiolated spinach seedlings, spinach was germinated on the soil and grown in the dark for 3 days, followed by exposure to normal growth light for 1 day for de-etiolation. More than 20 g of fully expanded mature leaves or whole de-etiolated seedlings were harvested and ground to a fine powder in a mortar and pestle with liquid nitrogen. After dissolving in 100 mL extraction buffer (20 mM HEPES [pH 7.6], 1 mM DTT and 0.1% β-mercaptoethanol) and filtrating with Miracloth, the samples were centrifuged at 10,000 × g for 10 min and subsequently at 50,000 × g for 30 min. […] The concentrated solution was desalted twice by Sephadex G50 column size-exclusion chromatography (GE Healthcare) into 1 mL of 50 mM HEPES (pH 7.4) and quantified by the Bradford assay ([Bradford, 1976]). […]
(§5) Unless otherwise noted, DHS enzymatic activity was monitored as previously described ([Liu et al., 2008]), with several optimizations for high-throughput assays with eight-strip PCR tubes and a thermal cycler. […] The absorbance of the pink supernatant was read at 549 nm with the microplate reader (Infinite 200 PRO, TECAN, Männedorf, Switzerland) to calculate DAHP production with the molar extinction coefficient at 549 nm (ε = 549 nm) of 4.5 × 10^4/M/cm. […]

[13] = tested on: DHS activity from the spinach seedling extracts; test: DHS activity assay of crude extracts from de-etiolated spinach seedlings; type: biochemical, Spinacia oleracea; conditions: 1 mM
Protocol: as §4, §5

[14] = read-out: IC50 of root growth impairment
[15] = read-out: concentration giving 50% growth inhibition

AthDHS3, sequence (Q9SK84 entry or part of it): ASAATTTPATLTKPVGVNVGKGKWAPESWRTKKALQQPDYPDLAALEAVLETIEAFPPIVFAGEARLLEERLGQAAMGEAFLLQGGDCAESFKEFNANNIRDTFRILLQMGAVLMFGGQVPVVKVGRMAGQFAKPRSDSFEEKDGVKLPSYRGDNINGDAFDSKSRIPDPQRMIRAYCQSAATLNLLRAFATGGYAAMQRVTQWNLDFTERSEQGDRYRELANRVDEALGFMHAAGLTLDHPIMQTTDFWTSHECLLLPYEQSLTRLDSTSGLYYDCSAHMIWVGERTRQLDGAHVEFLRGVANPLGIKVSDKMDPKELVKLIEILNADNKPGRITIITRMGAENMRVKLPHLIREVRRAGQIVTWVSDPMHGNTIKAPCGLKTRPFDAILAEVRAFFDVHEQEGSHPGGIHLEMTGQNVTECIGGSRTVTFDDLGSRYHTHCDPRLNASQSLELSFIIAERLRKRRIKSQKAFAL
T2 sequence (Q00218 34-507): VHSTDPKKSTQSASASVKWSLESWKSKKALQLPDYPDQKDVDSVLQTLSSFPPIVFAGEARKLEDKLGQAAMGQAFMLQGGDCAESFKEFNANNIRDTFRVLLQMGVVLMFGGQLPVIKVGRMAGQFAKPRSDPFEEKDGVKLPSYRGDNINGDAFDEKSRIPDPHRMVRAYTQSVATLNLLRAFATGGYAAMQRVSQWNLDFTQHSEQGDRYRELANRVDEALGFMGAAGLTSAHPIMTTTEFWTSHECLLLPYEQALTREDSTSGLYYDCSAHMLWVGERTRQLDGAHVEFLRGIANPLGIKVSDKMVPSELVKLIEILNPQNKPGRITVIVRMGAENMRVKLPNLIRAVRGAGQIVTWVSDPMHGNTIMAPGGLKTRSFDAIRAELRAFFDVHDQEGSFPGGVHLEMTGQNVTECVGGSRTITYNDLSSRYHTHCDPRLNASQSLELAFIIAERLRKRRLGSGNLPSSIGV
T1 sequence (P29976 49-525): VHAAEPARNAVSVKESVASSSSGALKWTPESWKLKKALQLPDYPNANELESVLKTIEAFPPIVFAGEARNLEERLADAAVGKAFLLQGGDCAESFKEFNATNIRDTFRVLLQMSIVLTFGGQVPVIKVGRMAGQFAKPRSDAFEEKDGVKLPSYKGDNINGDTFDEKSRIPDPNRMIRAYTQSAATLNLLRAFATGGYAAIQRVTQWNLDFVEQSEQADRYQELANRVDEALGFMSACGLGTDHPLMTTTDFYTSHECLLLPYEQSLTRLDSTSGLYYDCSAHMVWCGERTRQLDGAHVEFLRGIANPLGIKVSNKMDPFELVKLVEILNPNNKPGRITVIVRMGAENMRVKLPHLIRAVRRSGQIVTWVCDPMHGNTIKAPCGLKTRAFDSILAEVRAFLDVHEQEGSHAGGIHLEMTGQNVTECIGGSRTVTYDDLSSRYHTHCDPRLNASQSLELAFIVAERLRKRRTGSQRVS

| Compound | IC50 [1, 14] | IC50 [1, 15] | effect on AthDHS1 activity (in words) [3] | observed DHS activity of the enzyme mixtures versus theoretically calculated activity [4] | IC50 [5] | effect on AthDHS3 activity (in words) [7] | IC50 [3] | effect on total DHS activity of Arabidopsis mature leaf extract [11] | effect on total DHS activity of spinach mature leaf extract [12] | effect on DHS activity of de-etiolated spinach seedling extract [13] | also measured |
| --- | --- | --- | --- | --- | --- | --- | --- | --- | --- | --- | --- |
| N[C@@H](Cc1c[nH]c2ccccc12)C(=O)O [Trp, L-tryptophan] | 140 µM | > 300 µM | significantly activated | significantly higher than theoretically calculated activities | 225 µM | activated |  |  |  |  | concentration that specifically impaired root growth ([1]; dhs3 mutant): ≥ 100 µM; inhibition of DHS activity [2]: 50%; effect on DHS activity [6]: activation |
| N[C@@H](Cc1ccc(O)cc1)C(=O)O [Tyr, L-tyrosine] | 79 µM | > 300 µM | significantly activated | significantly higher than theoretically calculated activities |  |  |  |  |  |  | concentration that specifically impaired root growth ([1]; dhs1 mutant): ≥ 100 µM; effect of the added compound on Trp-mediated root growth inhibition of dhs3 ([1]; media with 300 µM Trp, AAAs added at 300 µM, shikimate at 500 µM): not recovered; phenotype of newly growing leaves ([8]; Col-0 and dhs3): cup-like shape; shoot phenotype ([8]; dhs1): very small and pale; cup-shaped leaf phenotype ([8]; dhs2): did not appear; effect on shikimate level [9]: did not alter the shikimate level; inhibition of DHS activity [10]: 60% |
| O=C(O)/C=C/c1ccc(O)c(O)c1 [caffeate] |  |  | completely inhibited |  |  | completely inhibited | 49.7 µM | more than half | more than half | significantly reduced | IC50 [7]: 53.4 µM |
| C=C(O[C@@H]1C=C(C(=O)O)C=C[C@H]1O)C(=O)O [chorismate] |  |  | completely inhibited |  | 52.5 µM | completely inhibited | 97.3 µM | more than half | more than half | significantly reduced | effect on AthDHS2 activity (in words) ([5]; 1 mM effector): completely inhibited; IC50 ([7]; varied effector concentrations, read-out: IC50 of AthDHS3 inhibition): 83 µM |
